Usually IC50 stands for the concentration that gives 50% inhibition.

For series [1], the system named is SARS-CoV-2. The experiment in a line: Inhibition of SARS-CoV-2 replication in Vero E6 cells (viral NP immunostaining, percent infection). The note with it: for IC50: read-out: IC50 of inhibition of the replication of SARS-CoV-2, MOI 0.025, compound added 2 h before infection, 48 h incubation, NP immunostaining.
In series [2] the test system is Vero E6 cells. The note with it: uninfected VeroE6 cells, MTT assay, same compound dilutions as viral replication assay.

As for `CCN(CCO)CCCC(C)Nc1ccnc2cc(Cl)ccc12` (stereo not drawn) [Hydroxy-Chloroquine], the IC50 in series [1] is 733 nM. `CN1CCN(c2ccc(Nc3ncc4cc(C#N)c(=O)n(C5CCCC5)c4n3)cc2)CC1` [ON123300]: in series [1] (SARS-CoV-2, negative control, data not shown), the “effect on viral replication” value is given as “no effect”. In the case of `CCC(CC)COC(=O)[C@H](C)N[P@](=O)(OC[C@H]1O[C@@](C#N)(c2ccc3c(N)ncnn23)[C@H](O)[C@@H]1O)Oc1ccccc1` [Remdesivir], the IC50 in series [1] is 826 nM. Turning to `COc1cc(OC)c(/C=C/S(=O)(=O)Cc2ccc(OC)c(NCC(=O)O)c2)c(OC)c1` [Rigosertib], the “effect on the viability of Vero E6 cells” value in series [2] is given as “little or no effect”. Moreover, the “fold more effective than Remdesivir (SARS-CoV-2 replication IC50)” value in series [1] (ratio of IC50 values versus Remdesivir) is recorded as “approximately 50 fold”. Also, in series [1], the half-maximal inhibitory concentration (IC50) was found to be 16 nM.

The values above are taken from patent publication US12616671B2, “Use of rigosertib to treat RNA virus infections” (Icahn School of Medicine at Mount Sinai, priority 2020, dated 2026).
